Experiments:
Assay in all cases: Cytotoxicity in selected cancer cell lines (SRB, 48 h)
Assay type in all cases: cell-based, human
HCT-15 (Colon) = test system: HCT-15 (Colon)
Experimental: (§1) Biological Activity: The in vitro cell line studies were carried out at the National Cancer Institute, Maryland, USA.
(§2) 6b, 6c, 6g, 10a and 10b were evaluated for in vitro anticancer activity against sixty human tumour cells derived from nine cancer types (leukemia, non-small-cell lung, colon, CNS, melanoma, ovarian, prostate, renal and breast cancer) as shown in (Table 1 and 2). For the compound, dose response curves for each cell line were measured at a minimum of five concentrations at 10 fold dilutions. A protocol of 48 h continuous drug exposure was used and a sulforhodamine B (SRB) protein assay was used to estimate cell viability or growth. The concentration causing 50% cell growth inhibition (GI50), total cell growth inhibition (TGI 0% growth) and 50% cell death (LC50, −50% growth) compared with the control was calculated.
(§3) Each cancer type represents the average of six to nine different cancer cell lines. In vitro evaluation of cytotoxic activity. The compound 6b, 6c, 6g 10a and 10b were evaluated for in vitro anticancer activity against nine human tumour cells derived from six cancer types (leukemia, colon, prostate, melanoma, ovarian, lung, cervix and breast cancer) as shown in Table 3. […] Compounds 6b, 6c, 6g, 10a and 10b have been evaluated for their in vitro cytotoxicity in selected human cancer cell lines of colon (Colo205), lung (NCI-H522, NCI-H226), colon (colo-205), prostate (DU145, PC3), ovarian (IGROV1, HT1080), and breast (MDA-MB-435, Zr-75-1), melanoma (LOXMIVI, VACC-62, SK-MEL-5) origin. A protocol of 48 h continuous drug exposure has been used and an […] has been used to estimate cell viability or growth. The results are expressed as percent of cell growth determined relative to that of untreated control cells

HL-60(TB) (Leukemia) = test system: HL-60(TB) (Leukemia)
Experimental: as §1, §2, §3

SF-539 (CNS) = test system: SF-539 (CNS)
Experimental: as §1, §2, §3

CAKI-1 (Renal) = test system: CAKI-1 (Renal)
Experimental: as §1, §2, §3

ACHN (Renal) = test system: ACHN (Renal)
Experimental: as §1, §2, §3

TK-10 (Renal) = test system: TK-10 (Renal)
Experimental: as §1, §2, §3

[1] = test system: NCI-H23 (Non-small cell lung)
Experimental: as §1, §2, §3

[2] = test system: NCI-H226 (Non-small cell lung)
Experimental: as §1, §2, §3

U251 (CNS) = test system: U251 (CNS)
Experimental: as §1, §2, §3

M14 (Melanoma) = test system: M14 (Melanoma)
Experimental: as §1, §2, §3

MALME-3M (Melanoma) = test system: MALME-3M (Melanoma)
Experimental: as §1, §2, §3

UACC-257 (Melanoma) = test system: UACC-257 (Melanoma)
Experimental: as §1, §2, §3

OVCAR-3 (Ovarian) = test system: OVCAR-3 (Ovarian)
Experimental: as §1, §2, §3

NCI/ADR-RES (Breast) = test system: NCI/ADR-RES (Breast)
Experimental: as §1, §2, §3

RPMI-8226 (Leukemia) = test system: RPMI-8226 (Leukemia)
Experimental: as §1, §2, §3

786-0 (Renal) = test system: 786-0 (Renal)
Experimental: as §1, §2, §3

UACC-62 (Melanoma) = test system: UACC-62 (Melanoma)
Experimental: as §1, §2, §3

Compound: COc1cc(C=CC(=O)c2ccc(F)cc2)ccc1OCCCCOc1cc2c(cc1OC)C(=O)N1CCC[C@H]1C=N2 [6b, 7-Methoxy-8-{4-[1-(4-fluorophenyl)-3-(4-hydroxy-3-methoxyphenyl)-2-propen-1-one]butyl}-oxy-(11aS)-1,2,3,11a-5H-pyrrolo[2,1-c][1,4]benzodiazepin-5-one]
- GI50 (HCT-15 (Colon)): 28.5 µM
- GI50 (HL-60(TB) (Leukemia)): 29 µM
- GI50 (SF-539 (CNS)): 29.6 µM
- GI50 (CAKI-1 (Renal)): 13.6 µM
- GI50 (ACHN (Renal)): 43.4 µM
- GI50 (TK-10 (Renal)): 16.6 µM
- GI50 [1]: 19.2 µM
- GI50 [2]: 14 µM
- GI50 (U251 (CNS)): 14.8 µM
- GI50 (M14 (Melanoma)): 10.1 µM
- GI50 (MALME-3M (Melanoma)): 18.2 µM
- GI50 (UACC-257 (Melanoma)): 70.9 µM
- GI50 (OVCAR-3 (Ovarian)): 37 µM
- GI50 (NCI/ADR-RES (Breast)): 13.8 µM
- GI50 (RPMI-8226 (Leukemia)): 13 µM
- GI50 (786-0 (Renal)): 19.8 µM
- GI50 (UACC-62 (Melanoma)): 10 µM

Compound: COc1cc(C=CC(=O)c2ccc(F)cc2)ccc1OCCCCCOc1cc2c(cc1OC)C(=O)N1CCC[C@H]1C=N2 [6c, 7-Methoxy-8-{5-[1-(4-fluorophenyl)-3-(4-hydroxy-3-methoxyphenyl)-2-propen-1-one]pentyl}-oxy-(11aS)-1,2,3,11a-5H-pyrrolo[2,1-c][1,4]benzodiazepin-5-one]
- GI50 (HCT-15 (Colon)): 29.3 µM
- GI50 (HL-60(TB) (Leukemia)): 28.2 µM
- GI50 (SF-539 (CNS)): 30.3 µM
- GI50 (CAKI-1 (Renal)): 15.8 µM
- GI50 (ACHN (Renal)): 42 µM
- GI50 (TK-10 (Renal)): 38.2 µM
- GI50 [1]: 15.8 µM
- GI50 [2]: 16.5 µM
- GI50 (U251 (CNS)): 15.2 µM
- GI50 (M14 (Melanoma)): 14.5 µM
- GI50 (MALME-3M (Melanoma)): 24.2 µM
- GI50 (UACC-257 (Melanoma)): 22.9 µM
- GI50 (OVCAR-3 (Ovarian)): 34.3 µM
- GI50 (NCI/ADR-RES (Breast)): 17.4 µM
- GI50 (RPMI-8226 (Leukemia)): 16.4 µM
- GI50 (786-0 (Renal)): 18.4 µM
- GI50 (UACC-62 (Melanoma)): 15.1 µM

Compound: COc1cc(C=CC(=O)c2c(C)nc3ccccc3c2C)ccc1OCCCOc1cc2c(cc1OC)C(=O)N1CCC[C@H]1C=N2 [10a, 7-Methoxy-8-{3-[3-(4-hydroxy-3-methoxyphenyl)-1-(2,4-dimethyl-3-quinolyl)-2-propen-1-one]propyl}-oxy-(11aS)-1,2,3,11a-5H-pyrrolo[2,1-c][1,4]benzodiazepin-5-one]
- GI50 (HCT-15 (Colon)): 29.7 µM
- GI50 (HL-60(TB) (Leukemia)): 25.2 µM
- GI50 (SF-539 (CNS)): 30.3 µM
- GI50 (CAKI-1 (Renal)): 15.8 µM
- GI50 (ACHN (Renal)): 32 µM
- GI50 (TK-10 (Renal)): 33.2 µM
- GI50 [1]: 24.1 µM
- GI50 [2]: 10.8 µM
- GI50 (U251 (CNS)): 19.8 µM
- GI50 (M14 (Melanoma)): 14.5 µM
- GI50 (MALME-3M (Melanoma)): 24.2 µM
- GI50 (UACC-257 (Melanoma)): 22.9 µM
- GI50 (OVCAR-3 (Ovarian)): 24.9 µM
- GI50 (NCI/ADR-RES (Breast)): 17.6 µM
- GI50 (RPMI-8226 (Leukemia)): 15 µM
- GI50 (786-0 (Renal)): 17.3 µM
- GI50 (UACC-62 (Melanoma)): 15.1 µM

Compound: COc1cc(C=CC(=O)c2c(C)nc3ccccc3c2C)ccc1OCCCCOc1cc2c(cc1OC)C(=O)N1CCC[C@H]1C=N2 [10b, 7-Methoxy-8-{4-[3-(4-hydroxy-3-methoxyphenyl)-1-(2,4-dimethyl-3-quinolyl)-2-propen-1-one]butyl}-oxy-(11aS)-1,2,3,11a-5H-pyrrolo[2,1-c][1,4]benzodiazepin-5-one]
- GI50 (HCT-15 (Colon)): 18.4 µM
- GI50 (HL-60(TB) (Leukemia)): 24.5 µM
- GI50 (SF-539 (CNS)): 33.7 µM
- GI50 (CAKI-1 (Renal)): 12.9 µM
- GI50 (ACHN (Renal)): 36.1 µM
- GI50 (TK-10 (Renal)): 31.4 µM
- GI50 [1]: 19.5 µM
- GI50 [2]: 10.1 µM
- GI50 (U251 (CNS)): 15.7 µM
- GI50 (M14 (Melanoma)): 18.8 µM
- GI50 (MALME-3M (Melanoma)): 36.2 µM
- GI50 (UACC-257 (Melanoma)): 15.9 µM
- GI50 (OVCAR-3 (Ovarian)): 26.3 µM
- GI50 (NCI/ADR-RES (Breast)): 16.9 µM
- GI50 (RPMI-8226 (Leukemia)): 13.8 µM
- GI50 (786-0 (Renal)): 14.9 µM
- GI50 (UACC-62 (Melanoma)): 22.5 µM

From patent publication US8461150B2, “Chalcone linked pyrrolo[2,1-c][1, 4]benzodiazepine hybrids as potential anticancer agents and process for the preparation thereof” (Council of Scientific & Industrial Research, priority 2008, dated 2013)
